In one test the test system is SAP. Nature of the test: Serum SAP in CREBH knockdown and control RNAi mice (ELISA). It is filed as in vivo, mouse. As to conditions: Tm 2 μg/gram body weight i.p., 24 hours. On the procedure:
(A) Identification of CREBH knockdown mice by Northern blot analysis. Transgenic mice with empty vector lentivirus expressing GFP were used as controls. Total RNAs (15 μg/lane) were isolated from the livers of the CREBH RNAi or the control mice, and subjected to Northern blot analysis. A 260 bp GFP cDNA fragment and a 210 bp mouse CREBH cDNA fragment were used as probes for detecting levels of GFP mRNA and CREBH mRNA, respectively. Levels of ββ-actin mRNA were determined for control of sample loading. (B) Morphology of CREBH knockdown embryos. The embryos were collected at gestation stage E14.5. The paraffin-embedded embryo sections were stained with hematoxylin and eosin. Magnification: 20 X. (C) Northern blot analysis of levels of CREBH, CRP and SAP mRNA in the livers of the CREBH knockdown or the control mice. Levels of β-actin mRNA were determined for sample loading controls. (D-E) Serum levels of SAP and CRP in the CREBH knockdown and the siRNA control mice in response to IL6 plus IL1β LPS or Tm. CREBH knockdown and RNAi control mice at 3-months of age were challenged with recombinant mouse IL6 (25 ng/gram body weight) plus recombinant mouse IL1β (25 ng/gram body weight), LPS (3 μg/gram body weight) or Tm (2 mg/kg body weight). Serum levels of SAP and CRP in the mice were determined before injection and at 24 hours after IL6 plus IL1β, LPS or Tm injection. […]
(In general: An ELISA detects its analyte on a solid surface through an enzyme-linked reagent.)

For the next test, the system named is human CREBH. Nature of the test: Cleavage of flag-tagged human CREBH stably expressed in H2.35 cells (Western blot, cell fractionation). Format: cell-based. On the procedure: FIG. 3 depicts the effects of ER stress on CREBH: proteolytic cleavage of CREBH to release its N-terminal fragment that translocates into the nucleus. (A) Illustration of transmembrane domains and lumenal domains of SREBP, ATF6, Luman and CREBH in human (hs), mouse (mm). The conserved residues for S1P and S2P recognition are highlighted. (B) Cleavage of CREBH in H2.35 cells under different stimuli. H2.35 cells stably expressing flag-tagged human CREBH were treated with 0.5 μg/ml BFA, 20 ng/ml TNFα, 40 ng/ml IL6, 5 mM DTT, 0.5 μM Tg or 5 μg/ml Tm for 8 hours. Untransfected H2.35 cells (lane 1) and the H2.35 cells that stably express human CREBH (lane 2) were cultured under normal conditions as control. Total cell lysates were collected for Western blot analysis by using an anti-flag monoclonal antibody (upper panel). Levels of α-actin were determined for control of protein loading (lower panel). (C) Cleavage of CREBH in H2.35 cells under Tm treatment for various time periods. The H2.35 cells stably expressing flag-tagged CREBH were cultured in the absence or presence of Tm (5 μg/ml) for 4, 8 or 12 hours. Membrane fractions were isolated from the total cell lysates, and were subjected to Western blot analysis of CREBH and calnexin, respectively. Nuclear fractions were isolated from the same total cell lysates and subjected to Western blot analysis of CREBH and PARP, respectively. (D) Translocation of CREBH in COS7 cells. COS7 cells were co-transfected with a construct expressing flag-tagged full-length CREBH (CREBH-F) or CREBH-ΔC and a construct expressing KDEL-RFP, and were then cultured in the absence or presence of Tm (5 μg/ml) for 4 hours. Cells were then stained with FITC-conjugated anti-flag antibody and subjected to Zeiss Confocal Microscope analysis. Magnification: 40×10.
For analysis of expression and cleavage of CREBH protein, total cell lysates were prepared from H2.35 cells or COS7 cells using Nonidet P-40 lysis buffer (1% NP-40, 50 mM Tris-HCl at pH 7.5, 150 mM NaCl, 0.05% SDS) supplemented with protease inhibitors (Complete Mini from Roche Applied Science), 0.1 mM sodium vanadate, and 1 mM sodium fluoride. Membrane and nuclear fractions of cell lysates were isolated as previously described (Dignam et al., 1983). The total cell lysate, membrane and nuclear fractions were subjected to SDS-PAGE and then analyzed by Western blot using anti-flag monoclonal antibody or other antibodies. Immunoprecipitation and Western blot analyses of ATF6 and CREBH interaction in 293T cells expressing flag-tagged CREBH protein were performed by using anti-human ATF6 and anti-flag antibodies. Total cell lysates from 293T cells transfected with control vector or pFlag-CREBH-ΔC were immunoprecipitated with anti-human ATF6 polyclonal antibody and anti-flag antibody, respectively. The immunoprecipitated cell lysates were then subjected to Western blotting by using anti-flag antibody to detect CREBH protein and using anti-human ATF6 antibody to detect ATF6 protein, respectively. The same total cell lysates were subjected to Western blotting by using anti-flag antibody to detect expression of CREBH protein in the transfected cells. For detecting endogenous CREBH protein in the liver extracts, an anti-mouse CREBH polyclonal antibody was raised in rabbits against a purified mouse CREBH peptide composed of amino acids 92-109 [[…]]. The rabbit anti-human ATF6 polyclonal antibody was generated in the inventor's laboratory. The anti-mouse calnexin monoclonal antibody and the anti-mouse monoclonal PRAP antibody were purchased from Stressgen Biotechnologies (Victoria, BC, Canada) and BD Bioscience (Mountain View, Calif., USA), respectively.
On the technique in general: A western blot detects proteins with antibodies after separation by electrophoresis.

For another test, the system named is ApoB mRNA. Nature of the test: Endogenous ApoB mRNA in mouse liver. It is filed as in vivo. As to conditions: Tm 2 μg/gram body weight i.p.; liver at 24 hours.

Description for ApoB mRNA: C57BL/6J mice at 3-months of age were injected intraperitoneally with Tm (2 μg/gram body weight) in 150 mM dextrose solution. Mice were injected with the same volume of dextrose solution as a control. Liver tissue were collected from mice at 24 hours after injection for RNA isolation. Quantitative real-time RT-PCR was used to determine the ApoB and the spliced XBP1 mRNA levels. Fold changes of mRNA induction were determined after normalization of the mRNA levels to internal control 18S ribosomal RNA levels. Data points are fold changes of the ApoB or spliced XBP1 mRNA levels for individuals, n=5 mice per injection.

In the case of tunicamycin [Tm], the “increase of serum SAP” value in the test on SAP (CREBH knockdown mice) is “approximately 2 fold”. The “increase of serum levels of SAP” value with SAP (control mice) is “approximately 12 fold”. For the same substance, in the test with human CREBH (H2.35 cells stably expressing flag-tagged human CREBH, 8 hours, BFA 0.5 μg/ml, TNFα 20 ng/ml, IL6 40 ng/ml, DTT 5 mM, Tg 0.5 μM, Tm 5 μg/ml), the “cleavage of CREBH to release a 50 kD N-terminal fragment” value was “significantly induced cleavage of CREBH”. For the same substance, the “amount of 50 kD N-terminal cleaved CREBH fragment in the nuclear fraction” value in the test with human CREBH (Tm 5 μg/ml for 4, 8 or 12 hours) is “gradually increased with increasing times of Tm treatment”. Moreover, the “induction of endogenous ApoB mRNA in mice” value in the test with ApoB mRNA is “only slightly increased”.

Source of the values: patent US20070111258A1, “Compositions and methods for modulating the acute phase response” (priority 2005, published 2007).
